Source: patent US20050197350A1, “Novel quinoline, tetrahydroquinazoline, and pyrimidine derivatives and methods of treatment related to the use thereof” (TAISHO PHARMACEUTICAL CO., LTD., priority 2003, published 2005)
Structures can show the parent of a compound that is named as a salt. Where two headings read alike, the source gives them in different places.

Target: MCH receptor (Homo sapiens, UniProt Q99705)
Assay: High throughput functional screening FLIPR/FDSS6000 (intracellular Ca2+ evoked by MCH)
Format: cell-based
Settings: FLIPR/FDSS, antagonist activity vs 50 nM MCH, class by percent of control at 10^−7 M or IC50, read-out: class
Summary of the method: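 For antagonist testing, compound-treated cells (30 min, 37 °C) were stimulated with 50 nM MCH and intracellular Ca2+ followed by Fluo4 fluorescence on FLIPR/FDSS6000. Receptor was a constitutively active, non-endogenous MCH receptor; dye loading 4 μM Fluo4-AM, 1 h, 37 °C.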

Row | SMILES | IC50 [nM] | IC50 (table after the classification) [nM]
1 | Cc1cnc(N[C@H]2CC[C@@H](C(=O)N[C@H](C)c3ccc(Br)cc3)CC2)nc1N(C)C [Example 3297, cis-N-[(1R)-1-(4-bromophenyl)ethyl]-4-{[4-(dimethylamino)-5-methylpyrimidin-2-yl]amino}cyclohexanecarboxamide] | 50 to 200 | –
2 | O=C(N[C@H]1CC[C@@H](Nc2ccc3ccccc3n2)CC1)c1cccc(Cl)c1 [Example 3035, 3-Chloro-N-[cis-4-(quinolin-2-ylamino)-cyclohexyl]-benzamide hydrochloride] | – | < 50
3 | Cc1cc(N[C@H]2CC[C@@H](NC(=O)c3ccc(F)c(F)c3)CC2)nc2ccccc12 [Example 3238, 3,4-Difluoro-N-[cis-4-(4-methyl-quinolin-2-ylamino)-cyclohexyl]-benzamide methanesulfonic acid] | – | < 50
4 | Cc1ccccc1NC(=O)N[C@H]1CC[C@@H](Nc2ncc(C)c(N(C)C)n2)CC1 [Example 3336, N-(cis-4-{[4-(dimethylamino)-5-methylpyrimidin-2-yl]amino}cyclohexyl)-N′-(2-methylphenyl)urea] | 50 to 200 | –
5 | O=C(N[C@H]1CC[C@@H](Nc2ncccn2)CC1)c1ccc(F)c(F)c1 [Example 3144, 3,4-Difluoro-N-[cis-4-(pyrimidin-2-ylamino)-cyclohexyl]-benzamide hydrochloride] | – | > 200
6 | O=C(N[C@H]1CC[C@@H](NCc2ccc3ccccc3n2)CC1)c1ccc(F)c(F)c1 [Example 3156, 3,4-Difluoro-N-{cis-4-[(quinolin-2-ylmethyl)-amino]-cyclohexyl}-benzamide dihydrochloride] | – | > 200
7 | Cc1cc(N[C@H]2CC[C@@H](NC(=O)COc3cccc(Cl)c3)CC2)nc2ccccc12 [Example 3099, 2-(3-Chloro-phenoxy)-N-[cis-4-(4-methyl-quinolin-2-ylamino)-cyclohexyl]-acetamide hydrochloride] | – | < 50
8 | Cc1cc(N[C@H]2CC[C@@H](C(=O)N[C@H](C)c3ccc(OC(F)(F)F)cc3)CC2)nc2ccccc12 [Example 3310, cis-4-[(4-methylquinolin-2-yl)amino]-N-{(1R)-1-[4-(trifluoromethoxy)phenyl]ethyl}cyclohexanecarboxamide] | > 200 | –
9 | Cc1cc(N[C@H]2CC[C@@H](NC(=O)c3ccc(N(C)C)nc3)CC2)nc2ccccc12 [Example 3176, 6-Dimethylamino-N-[cis-4-(4-methyl-quinolin-2-ylamino)-cyclohexyl]-nicotinamide dihydrochloride] | – | 50 to 200
10 | O=C(N[C@H]1CC[C@@H](Nc2nccc(C(F)(F)F)n2)CC1)c1cccnc1Oc1ccccc1 [Example 3133, 2-Phenoxy-N-[cis-4-(4-trifluoromethyl-pyrimidin-2-yl)-amino-cyclohexyl]-nicotinamide hydrochloride] | – | > 200
11 | Cc1cnc(N[C@H]2CC[C@@H](NC(=O)Nc3ccccc3F)CC2)nc1N(C)C [Example 3324, N-(cis-4-{[4-(dimethylamino)-5-methylpyrimidin-2-yl]amino}cyclohexyl)-N′-(2-fluorophenyl)urea] | 50 to 200 | –
12 | Cc1cnc(N[C@H]2CC[C@@H](NC(=O)c3cccnc3S(=O)(=O)c3ccc(Br)cc3)CC2)nc1N(C)C [Example 3289, 2-[(4-bromophenyl)sulfonyl]-N-(cis-4-{[4-(dimethylamino)-5-methylpyrimidin-2-yl]amino}cyclohexyl)nicotinamide] | 50 to 200 | –
13 | N#Cc1cccc(C(=O)N[C@H]2CC[C@@H](Nc3ccc4ccccc4n3)CC2)c1 [Example 3049, 3-Cyano-N-[cis-4-(quinolin-2-ylamino)-cyclohexyl]-benzamide hydrochloride] | – | < 50
14 | Cc1cnc(N[C@H]2CC[C@@H](C(=O)N[C@@H](C)c3cc(C(F)(F)F)cc(C(F)(F)F)c3)CC2)nc1N(C)C [Example 3293, cis-N-{(1S)-1-[3,5-bis(trifluoromethyl)phenyl]ethyl}-4-{[4-(dimethylamino)-5-methylpyrimidin-2-yl]amino}cyclohexanecarboxamide] | > 200 | –
15 | O=C(N[C@H]1CC[C@@H](Nc2ccc3ccccc3n2)CC1)c1cccc(Br)c1 [Example 3047, 3-Bromo-N-[cis-4-(quinolin-2-ylamino)-cyclohexyl]-benzamide hydrochloride] | – | < 50
16 | Cc1cnc(NC2CCC(C(=O)N[C@@H](C)c3ccccc3C(F)(F)F)CC2)nc1N(C)C (stereo partly drawn) [Example 3300, 4-{[4-(dimethylamino)-5-methylpyrimidin-2-yl]amino}-N-{(1S)-1-[2-(trifluoromethyl)phenyl]ethyl}cyclohexanecarboxamide] | < 50 | –
17 | CNc1nc(N[C@H]2CC[C@@H](C(N)Cc3ccccc3OC(F)(F)F)CC2)nc2c1CCCC2 (relative stereo) [Example 12, N^4-Methyl-N^2-{cis-4-[(2-trifluoromethoxy-benzyl)-amino-methyl]-cyclohexyl}-5,6,7,8-tetrahydro-quinazoline-2,4-diamine dihydrochloride] | – | 50 to 200
18 | Cc1cnc(N[C@H]2CC[C@@H](CNC(=O)Nc3cccc(Cl)c3Cl)CC2)nc1N(C)C [Example 3125, 1-(2,3-Dichloro-phenyl)-3-[cis-4-(4-dimethylamino-5-methyl-pyrimidin-2-ylamino)-cyclohexylmethyl]-urea hydrochloride] | – | < 50
19 | CN(C)c1ccnc(N[C@H]2CC[C@@H](NC(=O)c3ccc(F)cc3)CC2)n1 [Example 3214, N-[cis-4-(4-Dimethylamino-pyrimidin-2-ylamino)-cyclohexyl]-4-fluoro-benzamide hydrochloride] | – | 50 to 200
20 | COc1cccc(OCC(=O)N[C@H]2CC[C@@H](Nc3ccc4ccccc4n3)CC2)c1 [Example 3062, 2-(3-Methoxy-phenoxy)-N-[cis-4-(quinolin-2-ylamino)-cyclohexyl]-acetamide hydrochloride] | – | < 50
21 | Cc1cnc(N[C@H]2CC[C@@H](NC(=O)Nc3ccc(Br)cc3)CC2)nc1N(C)C [Example 3335, N-(4-bromophenyl)-N′-(cis-4-{[4-(dimethylamino)-5-methylpyrimidin-2-yl]amino}cyclohexyl)urea] | < 50 | –
22 | COc1ccc(S(=O)(=O)c2ncccc2C(=O)N[C@H]2CC[C@@H](Nc3nc(C)cc(N(C)C)n3)CC2)cc1 [Example 3380, N-(cis-4-{[4-(dimethylamino)-6-methylpyrimidin-2-yl]amino}cyclohexyl)-2-[(4-methoxyphenyl)sulfonyl]-nicotinamide] | > 200 | –
23 | Cc1cnc(N[C@H]2CC[C@@H](NC(=O)Nc3ccc(F)c(Cl)c3)CC2)nc1N(C)C [Example 3331, N-(3-chloro-4-fluorophenyl)-N′-(cis-4-{[4-(dimethylamino)-5-methylpyrimidin-2-yl]amino}cyclohexyl)urea] | 50 to 200 | –
24 | Cc1cnc(N[C@H]2CC[C@@H](NCC(=O)c3ccc(F)c(F)c3)CC2)nc1N(C)C [Example 3261, 1-(3,4-difluorophenyl)-2-[(cis-4-{[4-(dimethylamino)-5-methylpyrimidin-2-yl]amino}cyclohexyl)amino]ethanone] | > 200 | –
25 | Cc1cc(N[C@H]2CC[C@@H](NC(=O)c3cccnc3Oc3ccc(Cl)cc3)CC2)nc2ccccc12 [Example 3093, 2-(4-Chloro-phenoxy)-N-[cis-4-(4-methyl-quinolin-2-ylamino)-cyclohexyl]-nicotinamide hydrochloride] | – | < 50
26 | CCN(CC(=O)N[C@H]1CC[C@@H](Nc2nccc(N(C)C)n2)CC1)c1ccc(Cl)cc1 [Example 3203, C-[cis-(4-Chloro-phenyl)-ethyl-amino]-N-[4-(4-dimethylamino-pyrimidin-2-ylamino)-cyclohexyl]-acetamide dihydrochloride] | – | < 50
27 | COc1nc(N[C@H]2CC[C@@H](NC(=O)c3cc(Cl)cc(Cl)c3)CC2)ncc1C [Example 3279, 3,5-dichloro-N-{cis-4-[(4-methoxy-5-methylpyrimidin-2-yl)amino]cyclohexyl}benzamide] | > 200 | –
28 | Cc1cnc(N[C@H]2CC[C@@H](NC(=O)NC(C)(C)c3ccc(Cl)cc3)CC2)nc1N(C)C [Example 3264, N-[1-(4-chlorophenyl)-1-methylethyl]-N′-(cis-4-{[4-(dimethylamino)-5-methylpyrimidin-2-yl]amino}cyclohexyl)urea] | < 50 | –
29 | Cc1cnc(N[C@H]2CC[C@@H](NC(=O)c3cc(F)cc(Cl)c3)CC2)nc1N(C)C [Example 3388, 3-Chloro-N-[cis-4-(4-dimethylamino5-methyl-pyrimidin-2-ylamino)-cyclohexyl]5-fluoro-benzamide hydrochloride] | – | < 50
30 | Cc1cnc(N[C@H]2CC[C@@H](NC(=O)c3cc(F)c(F)c(F)c3)CC2)nc1N(C)C [Example 3389, N-[cis-4-(4-Dimethylamino-5-methyl-pyrimidin-2-ylamino)-cyclohexyl]-3,4,5-trifluoro-benzamide hydrochloride] | – | < 50
